From ChEMBL document CHEMBL4014283, “Structural insights of SmKDAC8 inhibitors: Targeting Schistosoma epigenetics through a combined structure-based 3D QSAR, in vitro and synthesis strategy” (Bioorg Med Chem, 2017) come the findings set out here.

Experiment [1] has as its target T1, Histone deacetylase 8 (Schistosoma mansoni) (UniProt A5H660).
T1 sequence (whole entry): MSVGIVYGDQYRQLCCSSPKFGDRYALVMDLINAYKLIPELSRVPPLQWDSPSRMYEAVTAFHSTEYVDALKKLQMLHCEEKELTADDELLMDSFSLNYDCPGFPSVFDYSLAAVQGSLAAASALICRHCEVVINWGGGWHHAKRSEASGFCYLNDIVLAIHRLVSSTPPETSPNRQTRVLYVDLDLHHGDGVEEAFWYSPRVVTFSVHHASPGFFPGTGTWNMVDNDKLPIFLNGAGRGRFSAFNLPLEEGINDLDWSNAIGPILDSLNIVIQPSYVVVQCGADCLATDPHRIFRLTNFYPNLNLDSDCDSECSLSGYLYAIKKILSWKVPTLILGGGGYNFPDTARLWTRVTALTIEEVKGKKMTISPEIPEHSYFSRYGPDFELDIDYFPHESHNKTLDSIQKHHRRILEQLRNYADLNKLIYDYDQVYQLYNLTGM
Description: Inhibition of Schistosoma mansoni KDAC8 at 30 uM using (FAM)-labeled peptide as substrate after 60 mins by microfluidic assay.

For experiment [2], the target named is T2, Histone deacetylase 8 (Schistosoma mansoni, UniProt A5H660).
T2 sequence (A5H660 whole entry): T1 sequence (whole entry)
Put plainly: Inhibition of Schistosoma mansoni KDAC8 using (FAM)-labeled peptide as substrate after 60 mins by microfluidic assay. As to conditions: read-out: IC50.

pIC50: −log10 of the molar value. Calls of active or inactive are those of the source. The rule behind the calls is not given here.

By inhibition is commonly meant the percentage by which the read-out fell short of the control. As a reminder, the pIC50 is the negative decadic logarithm of the IC50, by convention in mol/L. In turn, `O=C1Nc2ccccc2C(c2ccccc2)=N[C@H]1Cc1cn(C(c2ccccc2)(c2ccccc2)c2ccccc2)cn1` displayed an inhibition in experiment [1] of 9.68%. In addition, the negative logarithm of the IC50 (pIC50) in experiment [2] was under 4.52.
For `Nc1ccccc1NC(=O)c1ccc(-c2cn(CCc3ccsc3)nn2)cc1`, in that order: “inactive” and under 4.52.
The molecule `CC(C)(C)SC[C@H]1N=C(c2ccccc2)c2ccccc2N(CCCCC(=O)NO)C1=O` registered an inhibition in experiment [1] of 18.5%. Besides, in experiment [2], the negative-log IC50 (pIC50) was under 4.52.
For `O=C(CCCCN1C(=O)[C@H](CCC(=O)NO)N=C(c2ccccc2)c2ccccc21)NO`, in that order: 33.5% and under 4.52.
For `C[C@@H]1N=C(c2ccccc2)c2ccccc2N(CCCCC(=O)NO)C1=O`, in that order: 16.9% and under 4.52.
The like results for `CC(C)(C)OC(=O)NCCCC[C@@H]1N=C(c2ccccc2)c2ccccc2N(CCCCC(=O)NO)C1=O` were, in that order, 25.1% and under 4.52.
In the case of `O=C(CCCCN1C(=O)[C@H](CO)N=C(c2ccccc2)c2ccccc21)NO`, the inhibition in experiment [1] was determined as 0.46%. In experiment [2], the pIC50 was under 4.52.
For `CC[C@H](C)[C@@H]1N=C(c2ccccc2)c2ccccc2NC1=O`, in that order: 0% and under 4.52.
For `O=C(O)CCCCN1C(=O)CN=C(c2ccccc2)c2ccccc21`, in that order: 0% and under 4.52.
For `C[C@@H](O)[C@@H]1N=C(c2ccccc2)c2ccccc2N(CCCCC(=O)NO)C1=O`, in that order: 0.91% and under 4.52.
As for `O=C(O)CC[C@H]1N=C(c2ccccc2)c2ccccc2NC1=O`, the inhibition in experiment [1] was determined as 0%. Moreover, the negative logarithm of the IC50 (pIC50) in experiment [2] is under 4.52.
For `COC(=O)CCCCN1C(=O)[C@H](Cc2cc3ccccc3n2C(=O)OC(C)(C)C)N=C(c2ccccc2)c2ccccc21`, in that order: 0% and under 4.52.
For the molecule `CC(C)(C)OC[C@@H]1N=C(c2ccccc2)c2ccccc2N(CCCCC(=O)NO)C1=O`, the inhibition in experiment [1] came to 15.7%. In addition, the pIC50 in experiment [2] was under 4.52.
For `CC(C)[C@@H]1N=C(c2ccccc2)c2ccccc2N(CCCCC(=O)NO)C1=O`, in experiment [1], the inhibition is 20.6%. Also, the pIC50 in experiment [2] was under 4.52.
For `O=C(O)C[C@@H]1N=C(c2ccccc2)c2ccccc2N(CCCCC(=O)NO)C1=O`, in experiment [1], the inhibition turned out to be 12.4%. The pIC50 in experiment [2] is under 4.52.
For `CC(C)[C@@H]1NC(=O)[C@H]2CCCN2C(=O)[C@@H]2CCCN2C(=O)C[C@@H](C(=O)NCCCC(=O)NO)NC1=O`, in that order: 21 to 31.9% and under 4.52.
In experiment [1], `CC(C)(C)Oc1ccc(C[C@@H]2N=C(c3ccccc3)c3ccccc3N(CCCCC(=O)NO)C2=O)cc1` registered an inhibition of 74%. Besides, the negative logarithm of the IC50 (pIC50) in experiment [2] was 4.99.
For `CCCCCCCC(=O)SCC/C=C/[C@@H]1CC(=O)NCc2nc(cs2)C2=N[C@@](C)(CS2)C(=O)N[C@@H](C(C)C)C(=O)O1` [LARGAZOLE], in that order: 4% and under 4.52.
For `COC(=O)CCCCN1C(=O)[C@H](CCC(=O)OC(C)(C)C)N=C(c2ccccc2)c2ccccc21`, in that order: 0% and under 4.52.
For `C[C@@H](OCc1ccccc1)[C@@H]1N=C(c2ccccc2)c2ccccc2N(CCCCC(=O)NO)C1=O`, in that order: 20.5% and under 4.52.
Turning to `CC(C)C[C@@H]1N=C(c2ccccc2)c2ccccc2N(CCCCC(=O)O)C1=O`, the inhibition in experiment [1] is 0%. Moreover, the pIC50 in experiment [2] is under 4.52.
In experiment [1], `O=C(O)CCCCN1C(=O)[C@H](Cc2cncn2C(c2ccccc2)(c2ccccc2)c2ccccc2)N=C(c2ccccc2)c2ccccc21` had an inhibition of 0%. Further, the pIC50 in experiment [2] is under 4.52.
The like results for `NCCCC[C@@H]1N=C(c2ccccc2)c2ccccc2N(CCCCC(=O)NO)C1=O` were, in that order, 4.32% and under 4.52.
For `CCC(C)[C@@H]1N=C(c2ccccc2)c2ccccc2N(CCCCC(=O)NO)C1=O` (single isomer, unassigned), in that order: 11.7% and under 4.52.
The like results for `O=C(CCCNC(=O)C[C@@H]1N=C(c2ccccc2)c2ccccc2NC1=O)NO` were, in that order, 70.3% and 4.89.
In experiment [1], `NC(=O)C[C@@H]1N=C(c2ccccc2)c2ccccc2N(CCCCC(=O)NO)C1=O` returned an inhibition of 0%. Also, the pIC50 in experiment [2] was under 4.52.
For `O=C(CC[C@@H]1N=C(c2ccccc2)c2ccccc2NC1=O)NC(c1ccccc1)(c1ccccc1)c1ccccc1`, in that order: 10.4% and under 4.52.
For `C[C@H](OCc1ccccc1)[C@@H]1N=C(c2ccccc2)c2ccccc2N(CCCCC(=O)O)C1=O`, in that order: 0% and under 4.52.
The like results for `O=C(CCCCN1C(=O)[C@H](Cc2cncn2C(c2ccccc2)(c2ccccc2)c2ccccc2)N=C(c2ccccc2)c2ccccc21)NO` were, in that order, 3.81% and under 4.52.
For `CC(C)(C)OC(=O)NCCCC[C@@H]1N=C(c2ccccc2)c2ccccc2N(CCCCC(=O)O)C1=O`, in experiment [1], the inhibition worked out at 0%. Besides, the pIC50 in experiment [2] is under 4.52.
For `COC(=O)CCCCN1C(=O)[C@H](CCSC)N=C(c2ccccc2)c2ccccc21`, in that order: 0% and under 4.52.
The like results for `CC(=O)SCC/C=C/[C@@H]1CC(=O)NCc2ccc(cc2)C2=N[C@@](C)(CS2)C(=O)N[C@@H](C(C)C)C(=O)O1` were, in that order, “inactive” and under 4.52.
The like results for `COC(=O)CCCCN1C(=O)[C@@H](CSC(C)(C)C)N=C(c2ccccc2)c2ccccc21` were, in that order, 0% and under 4.52.
The molecule `CC(C)(C)OC[C@@H]1N=C(c2ccccc2)c2ccccc2N(CCCCC(=O)O)C1=O` came in with an inhibition in experiment [1] of 0%. Further, the pIC50 in experiment [2] is under 4.52.
For `O=C(CCCNC(=O)CC[C@@H]1N=C(c2ccccc2)c2ccccc2NC1=O)NO`, in that order: 81.7% and 5.19.
For `COC(=O)CCCCN1C(=O)[C@H](CCCCNC(=O)OC(C)(C)C)N=C(c2ccccc2)c2ccccc21`, in experiment [1], the inhibition turned out to be 0%. Besides, the negative logarithm of the IC50 (pIC50) in experiment [2] was under 4.52.
For `COC(=O)CCCCN1C(=O)[C@H](CC(C)C)N=C(c2ccccc2)c2ccccc21`, in that order: 0% and under 4.52.
The like results for `C[C@@H]1N=C(c2ccccc2)c2ccccc2N(CCCCC(=O)O)C1=O` were, in that order, 0% and under 4.52.
The like results for `CC(C)(C)OC(=O)CC[C@@H]1N=C(c2ccccc2)c2ccccc2NC1=O` were, in that order, 0% and under 4.52.
For the molecule `CC(C)[C@@H]1NC(=O)[C@H]2CCCN2C(=O)[C@@H]2CCCN2C(=O)C[C@H](C(=O)NCCCC(=O)NO)NC1=O`, in experiment [1], the inhibition is under 26%. The negative-log IC50 (pIC50) in experiment [2] is under 4.52.
For `O=C(C[C@H]1N=C(c2ccccc2)c2ccccc2NC1=O)NO`, in that order: 0% and under 4.52.
In experiment [1], `NC(=O)CC[C@@H]1N=C(c2ccccc2)c2ccccc2N(CCCCC(=O)NO)C1=O` came in with an inhibition of 11.6%. Moreover, the negative logarithm of the IC50 (pIC50) in experiment [2] is under 4.52.
The like results for `COC(=O)CCCCN1C(=O)[C@H](Cc2cncn2C(c2ccccc2)(c2ccccc2)c2ccccc2)N=C(c2ccccc2)c2ccccc21` were, in that order, 2.5% and under 4.52.
For `CC(C)[C@@H]1N=C(c2ccccc2)c2ccccc2NC1=O`, in that order: 0% and under 4.52.
`O=C1Nc2ccccc2C(c2ccccc2)=N[C@H]1Cc1ccccc1` had an inhibition in experiment [1] of 0%. The negative logarithm of the IC50 (pIC50) in experiment [2] was under 4.52.
The like results for `Cc1c(C)c(S(=O)(=O)NC(=N)NCCC[C@@H]2N=C(c3ccccc3)c3ccccc3N(CCCCC(=O)O)C2=O)c(C)c2c1OC(C)(C)C2` were, in that order, 0% and under 4.52.
For `COC(=O)CCCCN1C(=O)[C@H](Cc2ccc(OC(C)(C)C)cc2)N=C(c2ccccc2)c2ccccc21`, in that order: 0% and under 4.52.
